# Entries after “also recorded” stand apart in the source; their conditions may differ.
# Legend:
# [1] = target: T1, mouse SphK2 (Mus musculus, UniProt Q9JIA7); assay: yeast growth rescue assay, mouse SphK2 (CBY169 and KYA1 strains); type: cell-based; details: both the CBY169 and KYA1 strains
# T1 sequence (Q9JIA7 1-617): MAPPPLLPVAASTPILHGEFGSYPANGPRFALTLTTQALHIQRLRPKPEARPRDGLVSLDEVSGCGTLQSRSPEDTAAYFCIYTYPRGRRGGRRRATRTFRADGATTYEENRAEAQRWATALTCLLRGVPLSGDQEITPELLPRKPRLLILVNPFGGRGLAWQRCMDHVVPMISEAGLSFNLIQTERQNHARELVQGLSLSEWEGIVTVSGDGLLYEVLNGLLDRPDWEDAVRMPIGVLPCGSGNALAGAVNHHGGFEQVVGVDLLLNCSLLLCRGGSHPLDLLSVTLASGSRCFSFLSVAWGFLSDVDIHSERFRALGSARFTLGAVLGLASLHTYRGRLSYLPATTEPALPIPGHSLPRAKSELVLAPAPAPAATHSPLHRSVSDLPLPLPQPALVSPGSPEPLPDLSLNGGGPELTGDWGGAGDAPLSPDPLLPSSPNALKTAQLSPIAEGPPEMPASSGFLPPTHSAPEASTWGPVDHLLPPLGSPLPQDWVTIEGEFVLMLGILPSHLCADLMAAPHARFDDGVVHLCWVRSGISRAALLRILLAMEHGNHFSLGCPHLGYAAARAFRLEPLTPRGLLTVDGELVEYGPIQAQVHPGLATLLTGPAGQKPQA
# Source text: (§1) The plasmids pGAL-HsSPHK1, pGAL-HsSPHK2, pGAL-MmSphk1, pGAL-MmSphk1L277M, pGAL-MmSphk2, pGAL-HsCERK and pGAL-SK2_MOD used in this study were constructed by sub-cloning DNA encoding the indicated translational open reading frames into the pYES2-FLAG-URA expression vector (provided by Dr. Cungui Mao). […] Excepting human and mouse SphK2, the DNA sequences are synthetic (from GeneWiz LLC (South Plainfield, NJ)) and were optimized for expression in S. cerevisiae.
# (§2) Yeast harboring plasmids were selected and maintained on synthetic complete media lacking uracil (SC-URA) with 2% glucose as the fermentable carbon source. After overnight growth at 30°C in this media, the cultures were diluted 1:100 into SC-URA media supplemented with 2% galactose and various concentrations of test inhibitor. After a further 24–48 hours incubation at 30°C, the extent of growth was assessed by measuring absorbance at 600 nm. […] Tubes were incubated in a rotating drum while plates were agitated using a plate mixer. A600 for 96-well plate cultures was determined using a Molecular Devices SpectraMax M5 plate reader. Test compounds were dissolved in DMSO at 40–50 mM and diluted into water containing 0.1% fatty acid free bovine serum albumin. In all cases, the DMSO concentration in the assay was less than 2% (v/v).
# [2] = target: T2, human SphK1 (Homo sapiens, UniProt Q9NYA1); assay: yeast growth rescue assay, strain KYA1 (PDR5 deleted) expressing human SphK1; type: cell-based
# T2 construct: constructed by sub-cloning DNA encoding the indicated translational open reading frames into the pYES2-FLAG-URA expression vector; expressed in transfected cells; host or cells: Saccharomyces cerevisiae CBY169 or KYA1, plasmid pGAL-HsSPHK1
# Source text: as §1, §2
# [3] = target: T3, human SphK2 (Homo sapiens, UniProt Q9NRA0); assay: yeast growth rescue assay, strain KYA1 (PDR5 deleted) expressing human SphK2; type: cell-based; details: strain KYA1 expressing human SphK2
# T3 construct: full length (wild type hSK2); expressed in transfected cells; host or cells: Saccharomyces cerevisiae CBY169 or KYA1, plasmid pGAL-HsSPHK2
# T3 sequence (Q9NRA0 1-618 isoform Q9NRA0-2): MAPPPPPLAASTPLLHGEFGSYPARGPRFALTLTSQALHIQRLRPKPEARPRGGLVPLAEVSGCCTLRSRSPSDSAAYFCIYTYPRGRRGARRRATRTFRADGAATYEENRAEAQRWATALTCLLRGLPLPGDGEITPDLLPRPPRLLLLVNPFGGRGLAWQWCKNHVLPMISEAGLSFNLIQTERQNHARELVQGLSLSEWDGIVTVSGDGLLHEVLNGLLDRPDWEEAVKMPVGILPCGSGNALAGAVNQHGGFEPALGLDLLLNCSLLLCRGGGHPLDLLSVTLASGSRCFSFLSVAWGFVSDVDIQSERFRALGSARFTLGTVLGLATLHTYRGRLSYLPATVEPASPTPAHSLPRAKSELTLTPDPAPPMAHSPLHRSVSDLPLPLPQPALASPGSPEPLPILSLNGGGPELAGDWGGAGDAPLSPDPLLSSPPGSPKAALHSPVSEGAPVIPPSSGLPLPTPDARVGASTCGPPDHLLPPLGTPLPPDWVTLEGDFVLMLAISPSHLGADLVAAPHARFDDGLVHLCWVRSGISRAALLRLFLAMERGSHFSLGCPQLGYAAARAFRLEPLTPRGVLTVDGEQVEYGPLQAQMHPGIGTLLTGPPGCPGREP
# Source text: The yeast strains used in this study include JS1256 (MATa his3Δ1 leu2Δ0 met15Δ0 ura3Δ0) and CBY169 (MATα leu2-3,112 ura3-52 his4 trp1 rme1 dpl1Δ::TRP1 lcb3Δ::LEU2 lcb4Δ::kanMX lcb5Δ::kanMX) (the latter provided by Kyle Cunningham). The CBY169 strain was modified further by replacement of the PDR5 gene with a selectable marker (confers resistance to clonat) to generate strain KYA1 (MATα leu2-3,112 ura3-52 his4 trp1 rme1 dpl1Δ::TRP1 lcb3Δ::LEU2 lcb4Δ::kanMX lcb5Δ::kanMX pdr5Δ::natMX).
# The plasmids pGAL-HsSPHK1, pGAL-HsSPHK2, pGAL-MmSphk1, pGAL-MmSphk1L277M, pGAL-MmSphk2, pGAL-HsCERK and pGAL-SK2_MOD used in this study were constructed by sub-cloning DNA encoding the indicated translational open reading frames into the pYES2-FLAG-URA expression vector (provided by Dr. Cungui Mao). The encoded proteins all have an amino terminal FLAG epitope tag ([…]) and their expression is under the control of the GAL1,10 promoter. Excepting human and mouse SphK2, the DNA sequences are synthetic (from GeneWiz LLC (South Plainfield, NJ)) and were optimized for expression in S. cerevisiae.
# [4] = test system: yeast strain CBY169; assay: toxicity for yeast (growth of strains without lipid kinase expression)
# Protocol: as §2
# The salient limitations of the yeast assay are those of any cell-based assay. Namely, the assay reports EC50 values rather than Km, Vmax or kcat values of inhibitors, test compounds must not be markedly cytotoxic at the concentrations tested and compounds must accumulate to some extent in the yeast. Cytotoxicity is readily discerned by testing compounds for an effect on growth of strains without lipid kinase expression.
# [5] = target: T3, human SphK2; assay: yeast growth rescue assay, strain CBY169 expressing human SphK2; type: cell-based
# Source text: as §1
# [6] = target: T2, human SphK1; assay: yeast growth rescue assay, strain CBY169 expressing human SphK1; type: cell-based; details: strain CBY169 expressing human SphK1
# Source text: as §1, §2
# T2 sequence (Q9NYA1 whole entry): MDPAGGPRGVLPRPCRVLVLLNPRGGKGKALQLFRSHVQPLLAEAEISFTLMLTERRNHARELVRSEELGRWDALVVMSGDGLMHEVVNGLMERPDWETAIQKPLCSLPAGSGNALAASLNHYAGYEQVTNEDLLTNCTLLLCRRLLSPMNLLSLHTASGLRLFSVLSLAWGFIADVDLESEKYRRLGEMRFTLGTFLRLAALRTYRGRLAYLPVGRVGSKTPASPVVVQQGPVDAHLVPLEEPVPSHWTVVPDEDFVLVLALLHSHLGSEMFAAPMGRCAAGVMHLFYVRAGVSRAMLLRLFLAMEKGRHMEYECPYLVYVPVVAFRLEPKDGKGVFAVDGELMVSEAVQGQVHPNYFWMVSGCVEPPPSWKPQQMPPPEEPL
compound,measurement,setting,value
O=C(NCc1ccncc1)C12CC3CC(C1)CC(c1ccc(Cl)cc1)(C3)C2 [ABC294640],activity (rescue of growth),[1],failure to detect activity
same,rescue of growth,[2],failed to rescue growth
same,rescue of growth,[3],failed to rescue growth; also recorded: failure to detect activity
same,rescue of growth,[3]; concentrations up to 100 μM,failed to rescue growth
same,cytotoxicity for yeast,[4],not cytotoxic
same,rescue of growth,[5],failed to rescue growth; also recorded: failure to detect activity
same,rescue of growth in galactose media,[6],failed to rescue growth

# Reference: publication PMC5908134, “Saccharomyces cerevisiae as a platform for assessing sphingolipid lipid kinase inhibitors” (PLoS ONE, 2018)
